Test results: US7262206B2, “Cycloalkyl—containing 5-acylindolinones, the preparation thereof and their use as medicaments” (Boehringer Ingelheim International GmbH, priority 2004, dated 2007)

What was measured:
rats = test: Tolerability after oral administration to rats (behaviour); assay type: in vivo; settings: oral administration of 10 mg/kg
db/db mice = test: Oral glucose tolerance test; assay type: in vivo; settings: fasted db/db mice, 2 g/kg oral glucose 30 minutes after substance
Experimental: Oral Glucose Tolerance Test
Fasted db/db mice 7 to 9 weeks old (Janvier, France) are weighed and blood is taken from the tip of the tail. This blood is used for the first measurement of glucose on the basis of which the animals are randomised and divided into groups. The test substance to be tested may be given either orally or i.p. as a suspension in 0.5% Natrosol. 30 minutes after the administration of the substance the animals are given orally 2 g/kg glucose in a volume of 0.1 ml/100 g body weight dissolved in NaCl solution. Subsequently, the glucose values are determined from the tail blood using a glucometer (Ultra OneTouch, Lifescan) at specific time intervals [30, 60, 120 and 180 minutes after oral administration of the glucose].

Structure (SMILES): CC(=O)c1ccc2c(c1)/C(=C(/NC1CCN(C)CC1)c1ccc3c(c1)OCO3)C(=O)N2 [Example 1, 5-Acetyl-3-[(benzo[1,3]dioxol-5-yl)-(1-methyl-piperidin-4-ylamino)-methylidene]-2-indolinone]
- changes in the animals' behaviour (rats): no changes were observed in the animals' behaviour
- activity in the oral glucose tolerance test (db/db mice): significant activity
